Source: patent US20070172957A1, “Methods of identifying anti-inflammatory macrolides” (TAISHO PHARMACEUTICAL CO., LTD., priority 2004, published 2007)

Tested on: A549 cells
Experiment: A549 microarray comparing macrolides with arachidonic acid pathway inhibitors, with IL-1β stimulation (Appendix C, Tables 6-9), and correlation analysis
Format: cell-based
Conditions: A549 cells, +IL1b +/- inhibitor
Description: One inhibitor, triacsin C, acts on AA biosynthesis by inhibiting arachidonyl CoA synthetases, blocking the incorporation of free AA into phospholipids. Triacsin C is reasonably specific for AA compared to other fatty acids. However, triacsin C structurally resembles AA so it also may interfere with other steps in the AA pathway. Indomethacin is an inhibitor of COX1 and COX2 enzyme activities and therefore specifically blocks metabolism of AA into prostaglandins. […] It inhibits transcription of PLA2, and transcriptionally and post-transcriptionally regulates COX1 and COX2 activities. Dexamethasone has additional effects unrelated to AA through binding with the glucocorticoid receptor to glucocortcoid response elements.
A549 cells were pre-incubated overnight (17 hours) with macrolides (10 μM FMA-9045, 50 μM clarithromycin, 50 μM roxithromycin, 50 μM josamycin) and 15 μM triacsin C, and pre-incubated 2 hours with 100 nM indomethacin and 100 nM dexamethasone. All cells then were stimulated for 4 hours with IL-1β, because the activation of PLA2 and downstream signaling events generally requires an inflammatory stimulus. The various treatment conditions are shown below in Table 4. Following macrolide and inhibitor pre-treatment and IL-1 stimulation, the cells were lysed, total RNA was collected, and the poly-A+ mRNA fraction was purified. The resulting microarray data (Appendix C) were analyzed using the methods described in the Examples above.
The tables in Appendix C represent the effects of the arachidonic acid pathway inhibitors (“AA pathway inhibitors”) and the effects of the macrolides (“IL1+macrolide effects”). […] In both tables in Appendix C, the genes that meet this criterion (≧1.3 min fold change) are indicated in bold.
Quantitative analysis was done to determine how well the responses to the different AA pathway inhibitors correlated. The correlation values were assigned a p-value to provide statistical confidence to the correlation value. Correlation between experiments, across all spots showing good detection, was assessed by cosine vector angle to generate the data shown in Tables 7-9. A correlation coefficient close to one indicates strong correlation, whereas a value near zero indicates no correlation. P-values for each correlation coefficient were estimated based on a Fisher permutation test. In this test, each spot's expression ratios were randomly re-ordered across experiments and the degree of correlation between experiments was then reassessed. This was done repeatedly.

Question: What does the source list for `O=C(O)Cc1cc(I)c(Oc2ccc(O)c(I)c2)c(I)c1` [Triac]?
Answer: min fold change, SpotID 46796 STC1 (stanniocalcin 1): 1.00; min fold change, SpotID 46950 SERPINA3 (serine (or cysteine) proteinase inhibitor, clade A, member 3): 1.00; min fold change, SpotID 46985 RIPK2 (RIP2, RICK; receptor-interacting serine-threonine kinase 2): 1.43; min fold change, SpotID 47155 TNFAIP6 (tumor necrosis factor, alpha-induced protein 6): 1.02; min fold change, SpotID 47166 SERPINA6 (serine (or cysteine) proteinase inhibitor, clade A, member 6): 1.36; min fold change, SpotID 47193 STAT3 (signal transducer and activator of transcription 3): 1.32; min fold change, SpotID 47332 SERPINB3 (serine (or cysteine) proteinase inhibitor, clade B (ovalbumin), member 3): 1.06; min fold change, SpotID 47444 TKT (transketolase (Wernicke-Korsakoff syndrome)): 1.16; min fold change, SpotID 47569 STAT3 (signal transducer and activator of transcription 3): 1.19; min fold change, SpotID 47697 TNFRSF6B (DcR3; tumor necrosis factor receptor superfamily, member 6b, decoy): 1.11; min fold change, SpotID 47698 PTPRJ (protein tyrosine phosphatase, receptor type, J): 1.11; min fold change, SpotID 47987 THBS1 (thrombospondin 1): 1.00; min fold change, SpotID 48050 RPS6KA2 (ribosomal protein S6 kinase, 90 kD, polypeptide 2): 1.12; min fold change, SpotID 48234 PTPRZ1 (PTP zeta; protein tyrosine phosphatase, receptor-type, Z polypeptide 1): 1.00; min fold change, SpotID 48239 TLN1 (talin 1): 1.34; min fold change, SpotID 48288 TRAF5 (TNF receptor-associated factor 5): 1.34; min fold change, SpotID 48359 RIPK1 (receptor (TNFRSF)-interacting serine-threonine kinase 1): 1.00; min fold change, SpotID 48392 RIPK1 (receptor (TNFRSF)-interacting serine-threonine kinase 1): 1.00; min fold change, SpotID 48395 TNFRSF7 (CD27; tumor necrosis factor receptor superfamily, member 7): 1.09; min fold change, SpotID 48485 UCP1 (uncoupling protein 1 (mitochondrial, proton carrier)): 1.15; min fold change, SpotID 48500 RPL13A (ribosomal protein L13a): 1.25; min fold change, SpotID 48594 RPS6KA2 (ribosomal protein S6 kinase, 90 kD, polypeptide 2): 1.00; min fold change, SpotID 48603 TEAD4 (TEA domain family member 4): 1.38; min fold change, SpotID 49330 TNFRSF7 (CD27; tumor necrosis factor receptor superfamily, member 7): 1.51; min fold change, SpotID 49899 WWOX (WW domain containing oxidoreductase): 1.51; min fold change, SpotID 49901 TROAP (trophinin associated protein (tastin)): 1.01; min fold change, SpotID 50379 TNFRSF6 (FAS; tumor necrosis factor receptor superfamily, member 6): 1.04; min fold change, SpotID 50428 RPLP0 (ribosomal protein, large, P0): 1.00; min fold change, SpotID 50491 TNFRSF6B (DcR3; tumor necrosis factor receptor superfamily, member 6b, decoy): 1.36; wtd means, SpotID 46796 STC1 (stanniocalcin 1): 1.05; wtd means, SpotID 46950 SERPINA3 (serine (or cysteine) proteinase inhibitor, clade A, member 3): 1.06; wtd means, SpotID 46985 RIPK2 (RIP2, RICK; receptor-interacting serine-threonine kinase 2): 1.70; wtd means, SpotID 47155 TNFAIP6 (tumor necrosis factor, alpha-induced protein 6): 1.08; wtd means, SpotID 47166 SERPINA6 (serine (or cysteine) proteinase inhibitor, clade A, member 6): 1.48; wtd means, SpotID 47193 STAT3 (signal transducer and activator of transcription 3): 1.47; wtd means, SpotID 47332 SERPINB3 (serine (or cysteine) proteinase inhibitor, clade B (ovalbumin), member 3): 1.22; wtd means, SpotID 47444 TKT (transketolase (Wernicke-Korsakoff syndrome)): 0.76; wtd means, SpotID 47569 STAT3 (signal transducer and activator of transcription 3): 1.34; wtd means, SpotID 47697 TNFRSF6B (DcR3; tumor necrosis factor receptor superfamily, member 6b, decoy): 1.24; wtd means, SpotID 47698 PTPRJ (protein tyrosine phosphatase, receptor type, J): 1.17; wtd means, SpotID 47987 THBS1 (thrombospondin 1): 0.87; wtd means, SpotID 48234 PTPRZ1 (PTP zeta; protein tyrosine phosphatase, receptor-type, Z polypeptide 1): 1.00; wtd means, SpotID 48239 TLN1 (talin 1): 1.41; wtd means, SpotID 48288 TRAF5 (TNF receptor-associated factor 5): 1.60; wtd means, SpotID 48359 RIPK1 (receptor (TNFRSF)-interacting serine-threonine kinase 1): 1.27; wtd means, SpotID 48392 RIPK1 (receptor (TNFRSF)-interacting serine-threonine kinase 1): 1.08; wtd means, SpotID 48395 TNFRSF7 (CD27; tumor necrosis factor receptor superfamily, member 7): 1.50; wtd means, SpotID 48485 UCP1 (uncoupling protein 1 (mitochondrial, proton carrier)): 1.59; wtd means, SpotID 48500 RPL13A (ribosomal protein L13a): 1.37; wtd means, SpotID 48603 TEAD4 (TEA domain family member 4): 1.65; wtd means, SpotID 49330 TNFRSF7 (CD27; tumor necrosis factor receptor superfamily, member 7): 1.73; wtd means, SpotID 49899 WWOX (WW domain containing oxidoreductase): 1.62; wtd means, SpotID 49901 TROAP (trophinin associated protein (tastin)): 0.90; wtd means, SpotID 50379 TNFRSF6 (FAS; tumor necrosis factor receptor superfamily, member 6): 1.41; wtd means, SpotID 50428 RPLP0 (ribosomal protein, large, P0): 0.84; wtd means, SpotID 50491 TNFRSF6B (DcR3; tumor necrosis factor receptor superfamily, member 6b, decoy): 1.56
